Viscosity data for 2 molecules are collected here from a compilation of properties of binary mixtures (doi:10.1002/aic.14507).

This data set can be described thus: xn = mol fraction of the nth substance listed. The settings on record: 100 kPa.

As usually defined, the viscosity is the internal friction of a fluid under shear. The low end stands for easy flow, the high end for sluggish flow. Take `CCCCCCCCn1cc[n+](C)c1.F[B-](F)(F)F` + O: the viscosity amounted to 42.67 mPa·s (303 K, x1 = 0.5482); 28.9 mPa·s (313 K, x1 = 0.5482); 24.3 mPa·s (318 K, x1 = 0.5482); 20.63 mPa·s (323 K, x1 = 0.5482).

Take `CCCC[n+]1ccn(C)c1.O=[N+]([O-])[O-]` + O: the viscosity runs as follows: (303 K, x1 = 0.4462) 17.21 mPa·s; (303 K, x1 = 0.6298) 35.74 mPa·s; (313 K, x1 = 0.0098) 0.819 mPa·s; (313 K, x1 = 0.0219) 0.971 mPa·s; (313 K, x1 = 0.037) 1.24 mPa·s; (313 K, x1 = 0.1184) 2.753 mPa·s. For the same molecule, the viscosity came out at 3.908 mPa·s (313 K, x1 = 0.1728); 12.64 mPa·s (313 K, x1 = 0.4462); 24.64 mPa·s (313 K, x1 = 0.6298); 11 mPa·s (318 K, x1 = 0.4462); 20.86 mPa·s (318 K, x1 = 0.6298); 9.66 mPa·s (323 K, x1 = 0.4462). This molecule yielded a viscosity (323 K, x1 = 0.6298) of 17.88 mPa·s.
